This note sets out measurements from PMC8271538, “Chemical Modulation of the 1-(Piperidin-4-yl)-1,3-dihydro-2H-benzo[d]imidazole-2-one Scaffold as a Novel NLRP3 Inhibitor” (Molecules, 2021).

Series [1] deals with NLRP3-dependent pyroptosis in differentiated THP-1 cells. Description: NLRP3-dependent pyroptosis (LDH release) in PMA-differentiated, LPS-primed, ATP-triggered THP-1 cells. The settings on record: for inhibition at 10 µM: THP-1, 1.5 h, read-out: Pyroptosis Decrease, % inhibition at 10 µM; for inhibition at 1 µM: THP-1, 1 µM test compound (Figure 3). In kind it is cell-based, human.

In series [2] the test system is IL-1β release in differentiated THP-1 cells. The series is described as follows: IL-1β release (ELISA) in supernatants of LPS/ATP-treated differentiated THP-1 cells. The format is cell-based, human. The settings on record: same experiments as pyroptosis, vs vehicle-treated cells, mean ± SEM; for inhibition at 10 µM: Homo sapiens, THP-1, 10 µM test compound; for IL-1β Inhibition, % inhibition at 10 µM: 10 µM test compound. As for the experimental part:
Different techniques could be used to study NLRP3 inhibitors; the use of differentiated THP-1 cells treated with NLRP3 activating stimuli is suitable for the screening of large series of compounds [48]. All the synthesised compounds (Figure 2) were evaluated for their NLRP3 inhibitory activity by measuring their ability to prevent NLRP3-dependent pyroptosis in differentiated THP-1 cells. THP-1 cells were differentiated into macrophages by treatment with phorbol-myristate acetate (PMA; 50 nM; 24 h) and then treated with lipopolysaccharide (LPS; 10 µg/mL; 4 h) to promote NLRP3 expression. The cells were then incubated with test compounds at the fixed concentration of 10 µM for 1 h. Test compounds were dissolved in serum free medium containing 0.1% DMSO as the vehicle. NLRP3 was activated by the addition of ATP (5 mM), and the pyroptotic cell death was evaluated after 1.5 h by measuring the lactate dehydrogenase (LDH) released in the cell supernatants. The obtained results, expressed as pyroptosis% decrease with respect to vehicle-treated cells, are collected in Table 1. In the same experiments, the release of IL-1β was measured via an ELISA assay and the results, expressed as % inhibition of IL-1β release versus vehicle-treated cells, are reported in Table 1. Finally, the cytotoxicity of the synthesised compounds was evaluated by MTT assay after treatment of THP-1 cells with increasing concentration of test compounds (0.1–100 µM) for 72 h. […] The structural modulation of compound 2 was then carried out in order to understand whether it was possible to restore/increase the activity without the re-introduction of a Michael acceptor substructure.
Human myelomonocytic THP-1 cells were cultured in RPMI 1640 medium (Aurogene, Rome, Italy) supplemented with fetal bovine serum (10%; Aurogene), L-glutamine (2 mM; Aurogene), penicillin (100 IU/mL; Aurogene) and streptomycin ([…]; Aurogene). Cell culture medium was replaced every 2−3 days, and the cultures were maintained at 37 °C and 5% CO2 in a fully humidified incubator. The day before each experiment, cells were plated in 48-well culture plates (90.000 cells/well) and were differentiated by treatment with PMA (50 nM, 24 h; Sigma-Aldrich). PMA-differentiated THP-1 cells were washed twice with phosphate-buffered saline (PBS) and primed with LPS (10 μg/mL, 4 h; Sigma-Aldrich) in serum-free medium. Cells were then incubated with compounds dissolved in medium containing 0.1% DMSO for 1 h and cell death was triggered with ATP (5 mM, 90 min; Sigma-Aldrich). MCC950 (Sigma-Aldrich batch #45216 and batch #85021 and from Crysdot (product n. CD31002496; OS05876-18070932) was used in the experiments.
IL-1β release was quantified in differentiated THP-1 supernatant, obtained as previously described, using Human IL-1 beta Uncoated ELISA kit (Invitrogen, Waltham, MA, USA), according to the manufacture’s instruction.
In general terms: ELISA stands for enzyme-linked immunosorbent assay.

A further series deals with T1, human recombinant NLRP3 (Homo sapiens, UniProt Q96P20).
T1 construct: made in house; host or cells: HEK293T cells (transient transfection, captured from lysate on GFP-Trap Sepharose)
T1 sequence (Q96P20 whole entry): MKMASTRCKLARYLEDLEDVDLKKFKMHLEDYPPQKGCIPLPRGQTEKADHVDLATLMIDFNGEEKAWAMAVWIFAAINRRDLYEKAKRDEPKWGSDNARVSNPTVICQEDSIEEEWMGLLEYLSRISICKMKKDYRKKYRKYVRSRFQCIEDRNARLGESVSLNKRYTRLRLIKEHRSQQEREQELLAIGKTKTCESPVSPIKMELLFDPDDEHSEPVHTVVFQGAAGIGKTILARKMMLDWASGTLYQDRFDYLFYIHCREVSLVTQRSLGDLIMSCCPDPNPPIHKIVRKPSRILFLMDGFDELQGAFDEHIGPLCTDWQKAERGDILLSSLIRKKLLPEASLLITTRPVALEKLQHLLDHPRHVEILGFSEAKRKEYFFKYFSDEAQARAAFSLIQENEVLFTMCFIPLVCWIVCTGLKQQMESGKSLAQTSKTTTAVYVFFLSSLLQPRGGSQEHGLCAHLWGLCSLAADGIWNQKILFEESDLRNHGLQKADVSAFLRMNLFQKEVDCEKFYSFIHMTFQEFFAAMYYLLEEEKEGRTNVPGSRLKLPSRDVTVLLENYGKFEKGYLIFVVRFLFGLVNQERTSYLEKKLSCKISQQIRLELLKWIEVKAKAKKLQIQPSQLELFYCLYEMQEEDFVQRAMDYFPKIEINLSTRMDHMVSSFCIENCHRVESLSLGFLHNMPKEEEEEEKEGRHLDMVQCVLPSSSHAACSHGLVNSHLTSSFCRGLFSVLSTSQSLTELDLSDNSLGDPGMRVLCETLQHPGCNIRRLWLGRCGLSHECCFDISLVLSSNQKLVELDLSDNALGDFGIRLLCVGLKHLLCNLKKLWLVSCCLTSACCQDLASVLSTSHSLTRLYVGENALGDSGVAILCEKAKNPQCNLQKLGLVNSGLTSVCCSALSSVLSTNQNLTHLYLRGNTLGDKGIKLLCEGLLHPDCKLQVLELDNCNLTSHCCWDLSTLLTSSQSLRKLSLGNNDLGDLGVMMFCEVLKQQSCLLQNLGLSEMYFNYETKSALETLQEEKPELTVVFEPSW
Description: In vitro NLRP3 ATPase activity, on-bead ADP-Glo assay with immobilised NLRP3-GFP. In kind it is biochemical. The settings on record: for Inhibition of NLRP3 ATPase activity (% reduction in ATP hydrolysis relative to vehicle control) / inhibition at 100 µM: 100 μM compound, ATP 800 μM, mean ± SEM, n = 4; for inhibition at 100 µM: read-out: Inhibition of NLRP3 ATPase activity (% reduction in ATP hydrolysis relative to vehicle control); for NLRP3 ATPase inhibition at 1 mM compared with 100 µM: 1 mM vs 100 µM compound, data not shown. (In ADP-Glo the light output rises with the ADP produced.)

[3] abbreviates: Homo sapiens, 10 µM test compound, 1 h before ATP (5 mM, 90 min), vs vehicle-treated cells, mean ± SEM, NA = not active at 10 µM.
[4] abbreviates: 72 h treatment, 0.1–100 µM, MTT, TC50 ± SEM of three experiments.
The mark [5] stands for this setting: 10 µM test compound, 1 h before ATP (5 mM, 90 min), vs vehicle-treated cells, mean ± SEM, NA = not active at 10 µM.

Read-outs that look alike come from different tables or passages of the source. Marks after values point to notes of the source that are not given here.

As a reminder, the inhibition is how much of the control response was suppressed. For the compound `O=C(CCc1ccccc1Cl)n1c(=O)[nH]c2ccccc21` [Compound 16, 1-(3-(2-chlorophenyl)propanoyl)-1,3-dihydro-2H-benzo[d]imidazol-2-one], the inhibition at 10 µM in series [1] (setting [3]) worked out at 37.7 ± 7.6%; in series [2] it was 14.9 ± 8.8%. The “Cytotoxicity TC50” value in the series with THP-1 cells (setting [4]) amounted to 77.3 ± 3.7 µM.

Consider “1-(1-(2-(2-chlorophenyl)acetyl)piperidin-4-yl)-1,3-dihydro-2H-benzo[d]imidazol-2-one [Compound 4]”, for which the “Pyroptosis Decrease, % inhibition at 10 µM” value in series [1] is “inactive”. The “Inhibition of NLRP3 ATPase activity (% reduction in ATP hydrolysis relative to vehicle control)” value on human recombinant NLRP3 is reported as “reduce”. Besides, the “Cytotoxicity TC50” value with THP-1 cells came out at 80.9 ± 3.2 µM.

In series [1] (Homo sapiens), `O=C(CCc1ccccc1Cl)NCCn1c(=O)[nH]c2ccccc21` [Compound 9, 3-(2-chlorophenyl)-N-(2-(2-oxo-2,3-dihydro-1H-benzo[d]imidazol-1-yl)ethyl) propanamide] had an inhibition at 1 µM of 20 to 30%. Besides, in series [1] (setting [3]), the inhibition at 10 µM was 39.2 ± 6.6%. Also, in series [2], the inhibition at 10 µM stood at 20.3 ± 1.3%. In addition, at human recombinant NLRP3, the “Inhibition of NLRP3 ATPase activity (% reduction in ATP hydrolysis relative to vehicle control)” value was “restored the ATPase inhibition”, the inhibition at 100 µM came out at 18.3 ± 3.2% and the “NLRP3 ATPase inhibition at 1 mM compared with 100 µM” value is on record as “no significant differences”. In the series on THP-1 cells (setting [4]), the “Cytotoxicity TC50” value was found to be 87.1 ± 1.9 µM.

Regarding `N#CN=c1[nH]c2ccccc2n1C1CCN(C(=O)CCc2ccccc2Cl)CC1` [Compound 15, N-(1-(1-(3-(2-chlorophenyl)propanoyl)piperidin-4-yl)-1,3-dihydro-2H-benzo[d]imidazol-2-ylidene)cyanamide], the “Pyroptosis Decrease, % inhibition at 10 µM” value in series [1] (setting [5]) is “inactive”. For the same compound, the “Inhibition of NLRP3 ATPase activity (% reduction in ATP hydrolysis relative to vehicle control)” value at human recombinant NLRP3 is “significant inhibition of ATPase activity”. Besides, in the series with THP-1 cells (setting [4]), the “Cytotoxicity TC50” value stood at 83.4 ± 0.8 µM.

With `O=C(CCc1ccccc1Cl)NCCCn1c(=O)[nH]c2ccccc21` [Compound 10, 3-(2-chlorophenyl)-N-(3-(2-oxo-2,3-dihydro-1H-benzo[d]imidazol-1-yl)propyl) propanamide], the “Pyroptosis Decrease, % inhibition at 10 µM” value in series [1] (setting [5]) was “inactive”. At human recombinant NLRP3, the “Inhibition of NLRP3 ATPase activity (% reduction in ATP hydrolysis relative to vehicle control)” value is “no effect on ATPase inhibition was detected”. The “Cytotoxicity TC50” value with THP-1 cells (setting [4]) is >100 µM.

In the case of `CC(C)(O)c1coc(S(=O)(=O)NC(=O)Nc2c3c(cc4c2CCC4)CCC3)c1` [MCC950, reference compound], the inhibition at 10 µM in series [2] is 37.6 ± 6%. For the same compound, the “Cytotoxicity TC50” value with THP-1 cells (setting [4]) was >100 µM.

Take `CNC(=NC#N)NC1CCN(C(=O)CCc2ccccc2Cl)CC1` [Compound 12, 1-(1-(3-(2-chlorophenyl)propanoyl)piperidin-4-yl)-2-cyano-3-methylguanidine]: the inhibition at 10 µM came out at 15.7 ± 9.1% in series [1] (setting [3]) and 19 ± 0.4% in series [2]. In addition, in the series with THP-1 cells (setting [4]), the “Cytotoxicity TC50” value is >100 µM.

`N#CN=C(NCc1ccccc1)NC1CCN(C(=O)CCc2ccccc2Cl)CC1` [Compound 13, 1-benzyl-3-(1-(3-(2-chlorophenyl)propanoyl)piperidin-4-yl)-2-cyanoguanidine]: the “Pyroptosis Decrease, % inhibition at 10 µM” value in series [1] (setting [5]) is “able to inhibit”. Besides, in series [1] (Homo sapiens), the inhibition at 1 µM fell in the range of 20 to 30%. Moreover, the inhibition at 10 µM in series [1] (setting [3]) came out at 45 ± 8.8%. For the same compound, the “IL-1β Inhibition, % inhibition at 10 µM” value in series [2] (10 µM) is “able to inhibit”. The inhibition at 10 µM in series [2] came out at 25.2 ± 4.9%. At human recombinant NLRP3, the “Inhibition of NLRP3 ATPase activity (% reduction in ATP hydrolysis relative to vehicle control)” value is “significant inhibition of ATPase activity”, the inhibition at 100 µM came out at 26.5 ± 3.1% and the “NLRP3 ATPase inhibition at 1 mM compared with 100 µM” value is “no significant differences”. Also, the “Cytotoxicity TC50” value with THP-1 cells (setting [4]) is recorded as 85.7 ± 5.6 µM.

Turning to `O=C(CCc1ccccc1Cl)N1CCC(n2cnc3ccccc32)CC1` [Compound 14, 1-(4-(1H-benzo[d]imidazol-1-yl)piperidin-1-yl)-3-(2-chlorophenyl)propan-1-one], the “Pyroptosis Decrease, % inhibition at 10 µM” value in series [1] (setting [5]) is “inactive”. Moreover, the “Cytotoxicity TC50” value with THP-1 cells (setting [4]) is reported as 92.6 ± 4.0 µM.

Regarding “2-(3-(3-(2-chlorophenyl)propanoyl)-2-oxo-2,3-dihydro-1H-benzo[d]- imidazol-1-yl)propionic acid [Compound 21]”, in series [1] (setting [5]), the “Pyroptosis Decrease, % inhibition at 10 µM” value is “the activity was suppressed”. Moreover, the “Inhibition of NLRP3 ATPase activity (% reduction in ATP hydrolysis relative to vehicle control)” value on human recombinant NLRP3 is recorded as “reduced the inhibitory potential”. Further, the “Cytotoxicity TC50” value in the series with THP-1 cells came out at 80.1 ± 1.4 µM.

`O=C(O)Cn1c(=O)n(CCc2ccccc2Cl)c2ccccc21` [Compound 23, 2-(3-(2-chlorophenethyl)-2-oxo-2,3-dihydro-1H-benzo[d]imidazol-1-yl)acetic acid]: the values for the inhibition at 10 µM in series [1] (setting [3]) and in series [2] were 26.3 ± 3.5% and 13.9 ± 16.4%, respectively. In the series with THP-1 cells (setting [4]), the “Cytotoxicity TC50” value amounted to 62.4 ± 1.2 µM.

`O=C(CCc1ccccc1Cl)n1c(=O)n(Cc2nn[nH]n2)c2ccccc21` [Compound 19, 1-((2H-tetrazol-5-yl)methyl)-3-(3-(2-chlorophenyl)propanoyl)-1,3-dihydro-2H-benzo[d]imidazol-2-one]: the inhibition at 10 µM is 26.2 ± 1.6% in series [1] (setting [3]) and < 10% in series [2]. In addition, on human recombinant NLRP3, the “Inhibition of NLRP3 ATPase activity (% reduction in ATP hydrolysis relative to vehicle control)” value is “reduced the inhibitory potential”. Besides, in the series with THP-1 cells (setting [4]), the “Cytotoxicity TC50” value is given as >100 µM.

In the case of `O=C(CCc1ccccc1Cl)N1CCC(n2c(=O)[nH]c3ccccc32)CC1` [Compound 2, 1-(1-(3-(2-chlorophenyl)propanoyl)piperidin-4-yl)-1,3-dihydro-2H-benzo[d]imidazol-2-one], at 50 µM the inhibition in series [1] (Homo sapiens, THP-1, 50 µM test compound) was 29.1 ± 4.8%. In addition, the values for the inhibition at 10 µM in series [1] (setting [3]) and in series [2] were 14.9 ± 5.8% and 10.3 ± 5.8%, respectively. In addition, the inhibition at 100 µM on human recombinant NLRP3 was determined as 28.6 ± 5.5%. Besides, the “Cytotoxicity TC50” value in the series with THP-1 cells (setting [4]) came out at 64.1 ± 4.7 µM.

For “Ethyl 2-(3-(3-(2-chlorophenyl)propanoyl)-2-oxo-2,3-dihydro-1H-benzo[d] imidazol-1-yl)propanoate [Compound 20]”, the “Pyroptosis Decrease, % inhibition at 10 µM” value in series [1] (setting [5]) is given as 24.4 ± 6.8%. For the same compound, the “IL-1β Inhibition, % inhibition at 10 µM” value in series [2] came to 13.8 ± 5.4%. The “Cytotoxicity TC50” value in the series with THP-1 cells was 57.6 ± 3.2 µM.

With `CCOC(=O)Cn1c(=O)n(CCc2ccccc2Cl)c2ccccc21` [Compound 22, Ethyl 2-(3-(2-chlorophenethyl)-2-oxo-2,3-dihydro-1H-benzo[d]imidazol-1-yl) acetate], the “Cytotoxicity TC50” value with THP-1 cells (setting [4]) came to 92.8 ± 2.1 µM.

For the compound “3-(2-chlorophenyl)-N-(4-oxo-4-(4-(2-oxo-2,3-dihydro-1H-benzo[d]imidazol-1-yl)piperidin-1-yl)butyl)propenamide [Compound 8]”, in series [1] (setting [5]), the “Pyroptosis Decrease, % inhibition at 10 µM” value is 32.2 ± 10.6 ^d %. For the same compound, the “Cytotoxicity TC50” value in the series on THP-1 cells stood at 86.3 ± 5.1 µM.

On to `O=C(CCc1ccccc1Cl)NCCC(=O)N1CCC(n2c(=O)[nH]c3ccccc32)CC1` [Compound 7, 3-(2-chlorophenyl)-N-{3-oxo-3-[4-(2-oxo-2,3-dihydro-1,3-benzodiazol-1-yl)piperidin-1-yl]propyl}propanamide], for which the inhibition at 10 µM was ~35% in series [1] (setting [3]) and 18 to 21% in series [2]. Moreover, in series [2] (10 µM), the “IL-1β Inhibition, % inhibition at 10 µM” value stood at 17.8 ± 7.5%. In addition, in the series with THP-1 cells (setting [4]), the “Cytotoxicity TC50” value was 62.4 ± 13.3 µM.

As for “3-(2-chlorophenyl)-N-methyl-N-(3-(2-oxo-2,3-dihydro-1H-benzo[d]imidazole-1-yl)propyl)propenamide [Compound 11]”, the “Pyroptosis Decrease, % inhibition at 10 µM” value in series [1] was “inactive”.
